Counter-ions that a name gives are not always drawn.
Test system: serum protein
Settings: pH 1.0, 30 minutes
Description: Contents of the tubes are set out in TABLE II below:
The four tubes were incubated at room temperature for 30 minutes. At the end of the incubation, 4.0 ml of sodium barbital buffer (0.075 M, pH 8.6) was added and mixed with the contents of each tube. The radioactivity of each tube was measured with a gammacounter.
Each of the tubes was then transferred to an Amicon ultrafiltration cone with a centrifuge tube attachment. The tubes were centrifuged for 45 minutes at 2,200 × g at room temperature. The entire ultrafiltrate was collected and the radioactivity counted.
a = radioactivity before ultrafiltration,
b = the radioactivity in the ultrafiltrate

Molecule	destruction of thyroxine binding sites of the serum proteins
Cl [HCl, Hydrochloric acid]	only partially destroy
pepsin	completely destroyed

Reference: patent US3962039A, “Analytical procedure for thyroid hormones” (Center for Laboratory Medicine, priority 1975, dated 1976)
